From patent US20030180827A1, “Highly sensitive and continuous protein tyrosine phosphatase test using 6,8-difluoro-4-methylumbelliferyl phosphate” (Aventis Pharma Deutschland Gmbh., priority 2002, published 2003) come the findings set out here.

What all share (assay type): biochemical
The target of experiment [1] is T1, PTP1B (Homo sapiens, UniProt P18031).
T1 sequence (P18031 1-435): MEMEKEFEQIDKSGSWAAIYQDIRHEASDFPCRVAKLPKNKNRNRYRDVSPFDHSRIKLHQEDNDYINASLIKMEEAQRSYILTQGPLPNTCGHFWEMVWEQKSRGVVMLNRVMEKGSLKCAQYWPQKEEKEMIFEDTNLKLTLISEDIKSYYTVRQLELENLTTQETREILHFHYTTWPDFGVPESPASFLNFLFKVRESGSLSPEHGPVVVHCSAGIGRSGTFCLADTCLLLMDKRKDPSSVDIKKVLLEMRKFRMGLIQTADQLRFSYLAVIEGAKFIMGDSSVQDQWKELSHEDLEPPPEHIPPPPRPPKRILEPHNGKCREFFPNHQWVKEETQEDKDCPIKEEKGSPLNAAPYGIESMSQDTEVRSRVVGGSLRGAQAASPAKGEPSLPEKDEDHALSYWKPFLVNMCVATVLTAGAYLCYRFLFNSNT
As to the kind of experiment: malachite green phosphopeptide test. Conditions: malachite green phosphopeptide test method, for comparison. From the text:
The malachite green phosphopeptide test has been described as another method for measuring the activity of protein tyrosine phosphatases. Martin et al. (1985) Journal of Biological Chemistry, 260, pp. 14932 and Harder et al. (1994) Biochemical Journal, 298, pp. 395. In this method, the inorganic phosphate which the phosphatase has released from its substrate peptide is detected photometrically using the malachite green reagent. […]
The test for determining the inhibitory effect of the active compound 2,2-dioxo-2,3dihydro-2,6-benzo[1,2,3]oxathiazol-5-yl)-(9-ethyl-9H-carbazol-3-ylmethyl)amine using the DiFMUP test takes place in a black microtiter plate at a temperature of 37° C. […] The phosphatase reaction is started by adding 15 μl of 1 mM DiFMUP solution and the fluorescence (measured in RFU) is measured, at time intervals of 30 seconds and over a period of 15 minutes, in a fluorescence microtiter plate photometer at 358/455 nm. The measure of the enzyme activity is the increase in fluorescence, which can be depicted graphically (FIG. 1). […] The inhibitor concentration at which the active compound 2,2-dioxo-2,3-dihydro-2,6-benzo[1,2,3]oxathiazol-5-yl)-(9-ethyl-9H-carbazol-3-ylmethyl)amine reduces the activity of the PTP1B by half (IC-50) can be determined to be 3.8 μM. The IC-50 values using the pNPP test method and the malachite green phosphopeptide test were determined for comparison. […]

The target of experiment [2] is T1, PTP1B. The experiment can be described thus: pNPP test method. Conditions: for comparison. The text has this: The prior art discloses methods for measuring the activity of a protein tyrosine phosphatase using the substrate p-nitrophenyl phosphate (“p-NPP”). These methods are to be found in standard biochemical manuals such as Current Protocols in Protein Science: John E. Coligan (ed.), Ben M. Dunn (ed.), Hidde L. Ploegh (ed.), David W. Speicher (ed.), Paul T. Wingfield (ed.); SBN: 0-471-11184-8; loose-leaf pages, continuously updated; published by John Wiley & Sons. In these methods, the action of a phosphatase forms p-nitrophenol from the p-NPP. The p-nitrophenol thus produced can be measured photometrically on the basis of its intense yellow color in the alkaline range.
However, this test method has some unfavorable features. […] The increase in the pH leads to the color of the resulting p-nitrophenol changing to yellow, the absorption of which is determined photometrically and is a measure of the quantity of p-nitrophenol which is present. […]
The test for determining the inhibitory effect of the active compound 2,2-dioxo-2,3dihydro-2,6-benzo[1,2,3]oxathiazol-5-yl)-(9-ethyl-9H-carbazol-3-ylmethyl)amine using the DiFMUP test takes place in a black microtiter plate at a temperature of 37° C. […] The measure of the enzyme activity is the increase in fluorescence, which can be depicted graphically (FIG. 1). […]

Experiment [3] has as its target T2, protein tyrosine phosphatase PTP1B (Homo sapiens, UniProt P18031).
T2 sequence (P18031 1-435): T1 sequence (P18031 1-435)
The experiment can be described thus: DiFMUP test, inhibition of PTP1B. The conditions noted are these: DiFMUP substrate, 100 ng PTP1B/ml, pH 6.9, 37° C.; read-out: inhibitor concentration that reduces the activity of the PTP1B by half (IC-50). How it is done: The test for determining the inhibitory effect of the active compound 2,2-dioxo-2,3dihydro-2,6-benzo[1,2,3]oxathiazol-5-yl)-(9-ethyl-9H-carbazol-3-ylmethyl)amine using the DiFMUP test takes place in a black microtiter plate at a temperature of 37° C. 120 μl volumes of reaction buffer are provided, with the buffer containing the following components: 100 ng of protein tyrosine phosphatase PTP1B/ml; 50 mM Hepes, pH 6.9; 150 mM NaCl; 1 mM EDTA; 2 mM DTT. To this are added 15 μl of the inhibitor solution to be tested, at a variety of concentrations. The phosphatase reaction is started by adding 15 μl of 1 mM DiFMUP solution and the fluorescence (measured in RFU) is measured, at time intervals of 30 seconds and over a period of 15 minutes, in a fluorescence microtiter plate photometer at 358/455 nm. The measure of the enzyme activity is the increase in fluorescence, which can be depicted graphically (FIG. 1). The reduction in enzymic activity which is obtained depends on the concentration of inhibitor employed. The inhibitor concentration at which the active compound 2,2-dioxo-2,3-dihydro-2,6-benzo[1,2,3]oxathiazol-5-yl)-(9-ethyl-9H-carbazol-3-ylmethyl)amine reduces the activity of the PTP1B by half (IC-50) can be determined to be 3.8 μM. The IC-50 values using the pNPP test method and the malachite green phosphopeptide test were determined for comparison. […]

Experiment [4] addresses T2, protein tyrosine phosphatase PTP1B. The experiment can be described thus: Concentration dependence of the cleavage of DiFMUP by PTP1B (Lineweaver-Burk analysis). The conditions noted are these: DiFMUP as substrate 0-200 μM, 100 ng PTP1b/ml, pH 6.9, 37° C. The protocol:
The reaction takes place in a black microtiter plate at a temperature of 37° C. 135 μl of reaction buffer are provided in each case, with this buffer containing the following components: 100 ng of protein tyrosine phosphatase PTP1b/ml; 50 mM Hepes, pH 6.9; 150 mM NaCl; 1 mM EDTA; 2 mM DTT. The phosphatase reaction is started by adding 15 μl of DiFMUP solution, which contains the substrate at 10 times the final concentration which is desired in the test mixture (FIG. 2: 0-200 μM), and the fluorescence is measured, at time intervals of 30 seconds for a period of 15 minutes, in a fluorescence microtiter plate photometer at 358/455 nm. The measure of the enzyme activity is the increase in fluorescence (measured in RFU) in dependence on the DiFMUP concentration, which can be depicted graphically (FIG. 2). This graph can subsequently be used to determine the kinetic constants of the enzyme reaction by means of a Lineweaver-Burk analysis. […] This analysis can also be carried out in an analogous manner for other tyrosine phosphatases.

As to `CCn1c2ccccc2c2cc(CNc3ccc4c(c3)NS(=O)(=O)O4)ccc21` [2,2-dioxo-2,3-dihydro-2,6-benzo[1,2,3]oxathiazol-5-yl)-(9-ethyl-9H-carbazol-3-ylmethyl)amine], the figures for the IC50 (against PTP1B [1]; against PTP1B [2]; in experiment [3]) were 3.9 µM, 5.1 µM and 3.8 µM, respectively.
The Km is the concentration of substrate that gives half-maximal velocity. As for `Cc1cc(=O)oc2c(F)c(OP(=O)(O)O)c(F)cc12` [DiFMUP, 6,8-difluoro-4-methylumbelliferyl phosphate], in experiment [4], the Michaelis-Menten constant (Km) was 19 µM and the Vmax was determined as 388000 RFU sec-1 mg-1.
